According to US12545685B2 (Daiichi Sankyo Company, Limited, priority 2011, dated 2026):

Tests used:
[1] = tested on: human lung cancer-derived cell line NCI-H460 having wild-type p53; assay: Cell growth inhibition assay (MTT); format: cell-based; conditions: 72 h, NCI-H460 cells, 3 days culture, values given as ranges, read-out: 50% growth inhibition concentration (GI50 value)
Procedure: A cell growth inhibition assay was conducted using a human lung cancer-derived cell line NCI-H460 having wild-type p53.
NCI-H460 cells were suspended in a medium (RPMI1640 medium containing 10% fetal bovine serum) and the suspension was added in an amount of 500 cells/150 μl/well to a 96-well plate. A test compound was dissolved in DMSO and this solution was diluted with medium to prepare a sample solution (DMSO concentration: 1% or lower). On the next day, medium nonsupplemented with the test compound, or the sample solution, was added in an amount of 50 μl/well. Cells were then cultured at 37° ° C. for 3 days in a 5% CO2 atmosphere.
An MTT assay was conducted immediately after the nonsupplemented medium or the sample solution was added. Another MTT assay was conducted after culturing the cells for 3 days. The MIT assays were conducted as shown below.
A 5 mg/ml MTT (3-(4,5-dimethylthiazol-2-yl)-2,5-diphenyltetrazolium bromide, Sigma-Aldrich Co., M-2128) solution was prepared using a phosphate buffer solution (Dulbecco's Phosphate-buffered Saline). This MIT solution was added in an amount of 20 μl/well. Then the plate was cultured at 37° ° C. for 4 hours in a 5% CO2 atmosphere. The plate was centrifuged at 1200 rpm for 5 minutes and then the culture supernatant was removed by aspiration using a dispenser. DMSO was added in an amount of 150 μl/well to dissolve generated formazan. The plate was stirred using a plate mixer for uniform color development from each well. The absorbance of each well was measured at OD 540 nm and at a reference OD (660 nm) using a plate reader (SpectraMax PLUS384, Molecular Devices, CA, USA).
The OD value measured on the day of adding the sample solution was defined as S. The OD value measured three days after addition of the sample solution was defined as T. The OD value measured three days after addition of the DMSO dilution was defined as C. T/C (%) was determined at each concentration according to the formula shown below in order to prepare a dose response curve, from which 50% growth inhibition concentration (GI50 value) was calculated.

[2] = molecular target: T1, Mdm2/p53 binding (GST-Mdm2 / His-p53) (Homo sapiens, UniProt Q00987, L33E); assay: Mdm2/p53 binding assay (HTRF, His-p53 and GST-Mdm2); conditions: His-p53 (aa 1-132) and GST-Mdm2 (aa 25-108, L33E) 6.25 nM each; 25°C, 1 hour; values given as ranges
T1 construct: Mdm2 partial protein having Mdm2 amino acids at positions 25 to 108
Method in brief: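 His-p53 (aa 1–132) and GST-Mdm2 (aa 25–108, L33E) were prepared at 6.25 nM each in the protein dilution (20 mM HEPES pH 7.4, 150 mM NaCl, 0.1% BSA). Compound in 10% DMSO buffer and XL665 anti-His/Eu anti-GST antibodies (KF buffer) were added, with 1 h at 25 °C. The 665/620 nm TR-FRET ratio gave T/C and a sigmoid-fitted IC50.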

T1 sequence (Q00987 25-108 L33E): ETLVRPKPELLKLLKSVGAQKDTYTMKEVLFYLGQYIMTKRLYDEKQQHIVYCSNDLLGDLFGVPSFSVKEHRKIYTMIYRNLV

| SMILES | GI50 [1] | IC50 [2] |
| --- | --- | --- |
| CC1(C)CCC2(CC1)N[C@@H](C(=O)N[C@H]1CC[C@H](O)CC1)[C@H](c1cccc(Cl)c1F)[C@]21C(=O)Nc2cc(Cl)ccc21 (relative stereo) [Example 1, (3′R, 4′S,5′R)-6″-chloro-4′-(3-chloro-2-fluorophenyl)-N-(trans-4-hydroxycyclohexyl)-4,4-dimethyl-2″-oxo-1″,2″-dihydrodispiro[cyclohexane-1,2′-pyrrolidine-3′,3″-indole]-5′-carboxamide] | 100 to 500 nM | 50 to 100 nM |
| CC1(C)CCC2(CC1)N[C@@H](C(=O)N[C@H]1CC[C@H](CO)CC1)[C@H](c1cccc(Cl)c1F)[C@]21C(=O)Nc2nc(Cl)ccc21 (relative stereo) [Example 2, (3′R, 4′S,5′R)-6″-chloro-4′-(3-chloro-2-fluorophenyl)-N-[trans-4-(hydroxymethyl)cyclohexyl]-4,4-dimethyl-2″-oxo-1″,2″-dihydrodispiro[cyclohexane-1,2′-pyrrolidine-3′,3″-pyrrolo[2,3-b]pyridine]-5′-carboxamide] | 1000 to 5000 nM | 50 to 100 nM |
| O=C(N[C@H]1CC[C@H](O)CC1)[C@@H]1NC2(CCCCC2)[C@@]2(C(=O)Nc3cc(Cl)ccc32)[C@H]1c1cccc(Cl)c1F (relative stereo) [Example 4, (3′R, 4′S,5′R)-6″-chloro-4′-(3-chloro-2-fluorophenyl)-N-(trans-4-hydroxycyclohexyl)-2″-oxo-1″,2″-dihydrodispiro[cyclohexane-1,2′-pyrrolidine-3′,3″-indole]-5′-carboxamide] | 1000 to 5000 nM | 100 to 500 nM |
| CC1(C)CCC2(CC1)N[C@@H](C(=O)N[C@H]1CC[C@H](c3nnco3)CC1)[C@H](c1cccc(Cl)c1F)[C@]21C(=O)Nc2nc(Cl)ccc21 (relative stereo) [Example 5, (3′R, 4′S,5′R)-6″-chloro-4′-(3-chloro-2-fluorophenyl)-4,4-dimethyl-N-[trans-4-(1,3,4-oxadiazol-2-yl)cyclohexyl]-2″-oxo-1″,2″-dihydrodispiro[cyclohexane-1,2′-pyrrolidine-3′,3″-pyrrolo[2,3-b]pyridine]-5′-carboxamide] | 1000 to 5000 nM | 50 to 100 nM |
| CC1(C)CCC2(CC1)N[C@@H](C(=O)N[C@H]1CC[C@H](O)CC1)[C@H](c1cccc(Cl)c1F)[C@]21C(=O)Nc2nc(Cl)ccc21 (relative stereo) [Example 6, (3′R, 4′S,5′R)-6″-chloro-4′-(3-chloro-2-fluorophenyl)-N-(trans-4-hydroxycyclohexyl)-4,4-dimethyl-2″-oxo-1″,2″-dihydrodispiro[cyclohexane-1,2′-pyrrolidine-3′,3″-pyrrolo[2,3-b]pyridine]-5′-carboxamide] | 1000 to 5000 nM | 1 to 50 nM |
| CC1(C)CCC2(CC1)N[C@@H](C(=O)N[C@H]1CC[C@H](O)CC1)[C@H](c1ccnc(Cl)c1F)[C@]21C(=O)Nc2cc(Cl)ccc21 (relative stereo) [Example 16, (3′R, 4′S,5′R)-6″-chloro-4′-(2-chloro-3-fluoropyridin-4-yl)-N-(trans-4-hydroxycyclohexyl)-4,4-dimethyl-2″-oxo-1″,2″-dihydrodispiro[cyclohexane-1,2′-pyrrolidine-3′,3″-indole]-5′-carboxamide] | 100 to 500 nM | 1 to 50 nM |
| CC1(C)CCC2(CC1)N[C@@H](C(=O)N[C@H]1CC[C@H](c3nnco3)CC1)[C@H](c1ccnc(Cl)c1F)[C@]21C(=O)Nc2cc(Cl)ccc21 (relative stereo) [Example 18, (3′R, 4′S,5′R)-6″-chloro-4′-(2-chloro-3-fluoropyridin-4-yl)-4,4-dimethyl-N-[trans-4-(1,3,4-oxadiazol-2-yl)cyclohexyl]-2″-oxo-1″,2″-dihydrodispiro[cyclohexane-1,2′-pyrrolidine-3′,3″-indole]-5′-carboxamide] | 100 to 500 nM | 50 to 100 nM |
| CC1(C)CCC2(CC1)N[C@@H](C(=O)N[C@H]1CC[C@H](NC(=O)CO)CC1)[C@H](c1cccc(Cl)c1F)[C@]21C(=O)Nc2cc(Cl)ccc21 (relative stereo) [Example 24, (3′R, 4′S,5′R)-6″-chloro-4′-(3-chloro-2-fluorophenyl)-N-{trans-4-[(hydroxyacetyl)amino]cyclohexyl}-4,4-dimethyl-2″-oxo-1″,2″-dihydrodispiro[cyclohexane-1,2′-pyrrolidine-3′,3″-indole]-5′-carboxamide] | 100 to 500 nM | 50 to 100 nM |
| CC1(C)CCC2(CC1)N[C@@H](C(=O)N[C@H]1CC[C@H](c3nnco3)CC1)[C@H](c1ccnc(Cl)c1F)[C@]21C(=O)Nc2nc(Cl)ccc21 (relative stereo) [Example 26, (3′R, 4′S,5′R)-6″-chloro-4′-(2-chloro-3-fluoropyridin-4-yl)-4,4-dimethyl-N-[trans-4-(1,3,4-oxadiazol-2-yl)cyclohexyl]-2″-oxo-1″,2″-dihydrodispiro[cyclohexane-1,2′-pyrrolidine-3′,3″-pyrrolo[2,3-b]pyridine]-5′-carboxamide] | 500 to 1000 nM | 50 to 100 nM |
| CC1(C)CCC2(CC1)N[C@@H](C(=O)N[C@H]1CC[C@H](c3nnc[nH]3)CC1)[C@H](c1ccnc(Cl)c1F)[C@]21C(=O)Nc2cc(Cl)ccc21 (relative stereo) [Example 32, (3′R, 4′S,5′R)-6″-chloro-4′-(2-chloro-3-fluoropyridin-4-yl)-4,4-dimethyl-2″-oxo-N-[trans-4-(4H-1,2,4-triazol-3-yl)cyclohexyl]-1″,2″-dihydrodispiro[cyclohexane-1,2′-pyrrolidine-3′,3″-indole]-5′-carboxamide] | 100 to 500 nM | 50 to 100 nM |
| CC(O)[C@@H]1CC[C@@H](NC(=O)[C@@H]2NC3(CCC(C)(C)CC3)[C@@]3(C(=O)Nc4cc(Cl)ccc43)C2c2ccnc(Cl)c2)CO1 (single isomer, unassigned) [Example 77] | 100 to 500 nM | 1 to 50 nM |
| CC(O)[C@@H]1CC[C@@H](NC(=O)[C@@H]2NC3(CCC(C)(C)CC3)[C@@]3(C(=O)Nc4cc(Cl)ccc43)[C@H]2c2ccnc(Cl)c2F)CO1 (single isomer, unassigned) [Example 93] | 100 to 500 nM | 50 to 100 nM |
| CC1(C)CCC2(CC1)N[C@@H](C(=O)N[C@@H]1CC[C@@H](CO)OC1)[C@H](c1cccc(Cl)c1F)[C@]21C(=O)Nc2nc(Cl)ccc21 [Example 3, (3′R, 4′S,5′R)-6″-chloro-4′-(3-chloro-2-fluorophenyl)-N-[(3R,6S)-6-(hydroxymethyl)tetrahydro-2H-pyran-3-yl]-4,4-dimethyl-2″-oxo-1″,2″-dihydrodispiro[cyclohexane-1,2′-pyrrolidine-3′,3″-pyrrolo[2,3-b]pyridine]-5′-carboxamide] | 500 to 1000 nM | 1 to 50 nM |
| CC1(C)CCC2(CC1)N[C@@H](C(=O)N[C@@H]1CC[C@@H](CO)OC1)[C@H](c1cccc(Cl)c1F)[C@]21C(=O)Nc2cc(Cl)ccc21 [Example 8, (3′R, 4′S,5′R)-6″-chloro-4′-(3-chloro-2-fluorophenyl)-N-[(3R,6S)-6-(hydroxymethyl)tetrahydro-2H-pyran-3-yl]-4,4-dimethyl-2″-oxo-1″,2″-dihydrodispiro[cyclohexane-1,2′-pyrrolidine-3′,3″-indole]-5′-carboxamide] | 100 to 500 nM | 1 to 50 nM |
| CC1(C)CCC2(CC1)N[C@@H](C(=O)N[C@@H]1CC[C@@H](C(C)(C)O)OC1)[C@H](c1cccc(Cl)c1F)[C@]21C(=O)Nc2nc(Cl)ccc21 [Example 11, (3′R, 4′S,5′R)-6″-chloro-4′-(3-chloro-2-fluorophenyl)-N-[(3R,6S)-6-(1-hydroxy-1-methylethyl)tetrahydro-2H-pyran-3-yl]-4,4-dimethyl-2″-oxo-1″,2″-dihydrodispiro[cyclohexane-1,2′-pyrrolidine-3′,3″-pyrrolo[2,3-b]pyridine]-5′-carboxamide] | 500 to 1000 nM | 1 to 50 nM |
| CC1(C)CCC2(CC1)N[C@@H](C(=O)N[C@@H]1CC[C@@H](CO)OC1)[C@H](c1ccnc(Cl)c1)[C@]21C(=O)Nc2cc(Cl)ccc21 [Example 13, (3′R, 4′R, 5′R)-6″-chloro-4′-(2-chloropyridin-4-yl)-N-[(3R,6S)-6-(hydroxymethyl)tetrahydro-2H-pyran-3-yl]-4,4-dimethyl-2″-oxo-1″,2″-dihydrodispiro[cyclohexane-1,2′-pyrrolidine-3′,3″-indole]-5′-carboxamide] | 100 to 500 nM | 1 to 50 nM |
